≈ marks a conversion by molar mass, not a printed value.
What was measured:
Staphylococcus aureus = experiment: Antimicrobial activity against ciprofloxacin-, SXT-sensitive Staphylococcus aureus ATCC 25923; assay type: functional
[1] = tested on: Staphylococcus epidermidis; experiment: Antimicrobial activity against ciprofloxacin-sensitive, SXT-resistant Staphylococcus epidermidis NRS60; assay type: functional
Escherichia coli [2] = experiment: Antimicrobial activity against ciprofloxacin-, SXT-resistant Escherichia coli; assay type: functional
Klebsiella pneumoniae = experiment: Antimicrobial activity against ciprofloxacin-sensitive, SXT-resistant Klebsiella pneumoniae ATCC 700603; assay type: functional
Escherichia coli [3] = experiment: Antimicrobial activity against ciprofloxacin-, SXT-sensitive Escherichia coli ATCC 25922; assay type: functional
[4] = Inhibition of DNA supercoiling activity of Escherichia coli DNA gyrase after 1 hr by agarose gel electrophoresis
Pseudomonas aeruginosa = experiment: Antimicrobial activity against ciprofloxacin-sensitive, SXT-resistant Pseudomonas aeruginosa ATCC 10145; assay type: functional
[5] = Inhibition of DNA decatenation activity of Escherichia coli DNA topoisomerase 4 after 1 hr by agarose gel electrophoresis
[6] = Cytotoxicity against human HEK293 cells after 48 hrs by MTT assay; assay type: cell-based
HEK293 = experiment: Cytotoxicity against human HEK293 cells at 100 uM after 48 hrs by MTT assay; assay type: cell-based; conditions: hek293, 48 h
[7] = Cytotoxicity against human HepG2 cells after 48 hrs by MTT assay; assay type: cell-based
HepG2 = experiment: Cytotoxicity against human HepG2 cells at 100 uM after 48 hrs by MTT assay; assay type: cell-based; conditions: hepg2, 48 h
Dihydrofolate reductase = biological target: T1, Dihydrofolate reductase (Homo sapiens, UniProt P00374); experiment: Inhibition of DHFR using dihydrofolate as substrate following 3 mins substrate preincubation measured after 3 mins by spectrophotometric analysis
T1 sequence (P00374 whole entry): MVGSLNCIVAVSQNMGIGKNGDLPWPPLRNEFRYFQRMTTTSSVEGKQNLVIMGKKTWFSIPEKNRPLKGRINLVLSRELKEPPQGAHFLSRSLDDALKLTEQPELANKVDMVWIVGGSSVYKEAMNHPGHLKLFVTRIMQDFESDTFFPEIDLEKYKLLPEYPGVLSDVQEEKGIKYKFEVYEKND

## CCOC(=O)c1cn(C2CC2)c2nc(NCc3cn(Cc4cnc(N)nc4N)nn3)c(F)cc2c1=O
Staphylococcus aureus
  MIC: > 64 µg/mL
[1]
  MIC: > 64 µg/mL
Escherichia coli [2]
  MIC: > 64 µg/mL
Klebsiella pneumoniae
  MIC: > 64 µg/mL
Escherichia coli [3]
  MIC: > 64 µg/mL
[4]
  IC50: Not Active
Pseudomonas aeruginosa
  MIC: > 64 µg/mL
[5]
  IC50: Not Active

## C#CCN1CCN(c2nc3c(cc2F)c(=O)c(C(=O)O)cn3C2CC2)CC1
Staphylococcus aureus
  MIC: 0.25 µg/mL (≈ 0.675 µM)
[1]
  MIC: 0.5 µg/mL (≈ 1.35 µM)
Escherichia coli [2]
  MIC: > 64 µg/mL
Klebsiella pneumoniae
  MIC: 8 µg/mL (≈ 21.6 µM)
Escherichia coli [3]
  MIC: 0.25 µg/mL (≈ 0.675 µM)
[4]; read-out: IC50
  IC50: 10 µM
Pseudomonas aeruginosa
  MIC: 8 µg/mL (≈ 21.6 µM)
[5]; read-out: IC50
  IC50: 4.4 µM

## C#CCNc1nc2c(cc1F)c(=O)c(C(=O)OCC)cn2C1CC1
[6]
  CC50 at 48 h: 80 µM
HEK293
  Activity: Toxic
[7]
  CC50 at 48 h: 80 µM
HepG2
  Activity: Toxic

## COc1cc(Cc2cnc(Nc3nc4c(cc3F)c(=O)c(C(=O)O)cn4C3CC3)nc2N)cc2c1OCCN2
Staphylococcus aureus
  MIC: > 64 µg/mL
[1]
  MIC: > 64 µg/mL
Escherichia coli [2]
  MIC: > 64 µg/mL
Klebsiella pneumoniae
  MIC: > 64 µg/mL
Escherichia coli [3]
  MIC: > 64 µg/mL
Pseudomonas aeruginosa
  MIC: > 64 µg/mL

## COc1cc(Cc2cnc(N)nc2N)cc2c1OCCN2
Staphylococcus aureus
  MIC: 8 µg/mL (≈ 27.8 µM)
[1]
  MIC: > 64 µg/mL
Escherichia coli [2]
  MIC: > 64 µg/mL
Klebsiella pneumoniae
  MIC: 32 µg/mL (≈ 111 µM)
Escherichia coli [3]
  MIC: 8 µg/mL (≈ 27.8 µM)
[4]; read-out: IC50
  IC50: > 250 µM
Pseudomonas aeruginosa
  MIC: > 64 µg/mL
[5]; read-out: IC50
  IC50: > 250 µM

## COLISTIN
Staphylococcus aureus
  MIC: 1 µg/mL
[1]
  MIC: 2 µg/mL
Escherichia coli [2]
  MIC: > 64 µg/mL
Klebsiella pneumoniae
  MIC: < 0.03 µg/mL
Escherichia coli [3]
  MIC: 0.06 µg/mL
Pseudomonas aeruginosa
  MIC: ≤ 0.03 µg/mL

## O=C(O)c1cn(C2CC2)c2cc(N3CCNCC3)c(F)cc2c1=O [CIPROFLOXACIN]
Staphylococcus aureus
  MIC: 0.5 µg/mL (≈ 1.51 µM)
[1]
  MIC: 0.06 µg/mL (≈ 0.181 µM)
Escherichia coli [2]
  MIC: > 64 µg/mL
Klebsiella pneumoniae
  MIC: 0.125 µg/mL (≈ 0.377 µM)
Escherichia coli [3]
  MIC: ≤ 0.03 µg/mL
[4]; read-out: IC50
  IC50: 0.97 µM
Pseudomonas aeruginosa
  MIC: ≤ 0.03 µg/mL
[5]; read-out: IC50
  IC50: 0.392 µM

## COc1cc(Cc2cnc(N)nc2Nc2nc3c(cc2F)c(=O)c(C(=O)O)cn3C2CC2)cc2c1OCCN2
Staphylococcus aureus
  MIC: > 64 µg/mL
[1]
  MIC: > 64 µg/mL
Escherichia coli [2]
  MIC: > 64 µg/mL
Klebsiella pneumoniae
  MIC: > 64 µg/mL
Escherichia coli [3]
  MIC: > 64 µg/mL
Pseudomonas aeruginosa
  MIC: > 64 µg/mL

## Nc1ncc(Cn2cc(CN3CCN(c4nc5c(cc4F)c(=O)c(C(=O)O)cn5C4CC4)CC3)nn2)c(N)n1
Staphylococcus aureus
  MIC: 64 µg/mL (≈ 120 µM)
[1]
  MIC: 8 µg/mL (≈ 14.9 µM)
Escherichia coli [2]
  MIC: > 64 µg/mL
Klebsiella pneumoniae
  MIC: > 64 µg/mL
Escherichia coli [3]
  MIC: 4 µg/mL (≈ 7.47 µM)
[4]; read-out: IC50
  IC50: 160 µM
Pseudomonas aeruginosa
  MIC: 64 µg/mL (≈ 120 µM)
[5]; read-out: IC50
  IC50: 10.7 µM

## Nc1ncc(CNc2nc3c(cc2F)c(=O)c(C(=O)O)cn3C2CC2)c(N)n1
Staphylococcus aureus
  MIC: > 64 µg/mL
Escherichia coli [3]
  MIC: > 64 µg/mL

## Nc1ncc(COCc2cn(-c3nc4c(cc3F)c(=O)c(C(=O)O)cn4C3CC3)nn2)c(N)n1
Staphylococcus aureus
  MIC: 4 µg/mL (≈ 8.56 µM)
[1]
  MIC: 4 µg/mL (≈ 8.56 µM)
Escherichia coli [2]
  MIC: > 64 µg/mL
Klebsiella pneumoniae
  MIC: 16 µg/mL (≈ 34.2 µM)
Escherichia coli [3]
  MIC: 0.5 µg/mL (≈ 1.07 µM)
[4]; read-out: IC50
  IC50: 48 µM
Dihydrofolate reductase
  IC50: > 250 µM
Pseudomonas aeruginosa
  MIC: > 64 µg/mL
[5]; read-out: IC50
  IC50: 4.5 µM

## COc1cc(Cc2cnc(N)nc2N)cc(OC)c1OC [TRIMETHOPRIM]
Staphylococcus aureus
  MIC: 1 µg/mL (≈ 3.44 µM)
[1]
  MIC: > 64 µg/mL
Escherichia coli [2]
  MIC: > 64 µg/mL
Klebsiella pneumoniae
  MIC: 2 µg/mL (≈ 6.89 µM)
Escherichia coli [3]
  MIC: 0.125 µg/mL (≈ 0.431 µM)
Pseudomonas aeruginosa
  MIC: > 64 µg/mL

## C#CCNc1nc2c(cc1F)c(=O)c(C(=O)O)cn2C1CC1
Staphylococcus aureus
  MIC: 32 µg/mL (≈ 106 µM)
[1]
  MIC: 16 µg/mL (≈ 53.1 µM)
Escherichia coli [2]
  MIC: > 64 µg/mL
Klebsiella pneumoniae
  MIC: > 64 µg/mL
Escherichia coli [3]
  MIC: 16 µg/mL (≈ 53.1 µM)
[4]; read-out: IC50
  IC50: 166 µM
Pseudomonas aeruginosa
  MIC: > 64 µg/mL
[5]; read-out: IC50
  IC50: > 250 µM

## [N-]=[N+]=Nc1nc2c(cc1F)c(=O)c(C(=O)O)cn2C1CC1
Staphylococcus aureus
  MIC: 16 µg/mL (≈ 55.3 µM)
[1]
  MIC: 4 µg/mL (≈ 13.8 µM)
Escherichia coli [2]
  MIC: > 64 µg/mL
Klebsiella pneumoniae
  MIC: 64 µg/mL (≈ 221 µM)
Escherichia coli [3]
  MIC: 2 µg/mL (≈ 6.92 µM)
[4]; read-out: IC50
  IC50: 17 µM
Pseudomonas aeruginosa
  MIC: > 64 µg/mL
[5]; read-out: IC50
  IC50: > 250 µM

Source: ChEMBL document CHEMBL2010671, “Structure aided design of chimeric antibiotics” (Bioorg Med Chem Lett, 2012)
